Assay results from US10294272B2, “Peptides with antagonistic activities against natural CXCR4” (Pharis Biotec GmbH, priority 2013, dated 2019).
Positions of bridges follow the written chain, without caps; N, C: chain ends. Residues, ends and D or L forms follow the SMILES beside them. Chains are numbered I, II in the order given. No end group written: not given here.

Tested on: X4 tropic HIV-1 NL4-3
Settings: blocking X4 tropic HIV-1 NL4-3 infection
Procedure: Antiviral screening was performed using the X4 HIV-1 NL4-3 molecular clone.
HIV-1, HIV-2 and SIV molecular clones differing in coreceptor tropism were generated by transient transfection of 293T cells with proviral DNA by the calcium phosphate method (CalPhos™ Mammalian Transfection Kit, Clon-tech). After overnight incubation, the transfection mixture was replaced by DMEM medium supplemented with 10% FCS, and virus stocks were harvested 48 hrs post-transfection. Subsequently, the culture supernatant was centrifuged for 5 min at 3000 rpm to remove cell debris. The resulting virus stock was quantified by p24 (HIV) or p27 (SIV) antigen ELISA. Virus stocks were either used immediately or stored in aliquots at −80° C.
TZM-bl reporter cells containing the LacZ reporter gene under the control of the HIV-1 promoter were seeded in 96-well F-bottom microtiter plates (Greiner Bio-One). On the following day, the cells were preincubated with various dilutions of the peptide of SEQ ID NO 16 or its derivatives for 1 hour and subsequently infected with HIV-1, HIV-2, and SIV. Infection rates were determined after 2 days using the one-step Tropix Gal-Screen Kit, as recommended by the manufacturer.

Compound | IC50
CC[C@H](C)[C@H](N)C(=O)N[C@H](C(=O)N[C@@H](CCCNC(=N)N)C(=O)N[C@@H](Cc1ccc(O)cc1)C(=O)N[C@@H](CO)C(=O)N[C@@H](CCCCN)C(=O)N[C@@H](CCCCN)C(=O)N[C@H](C(=O)N1CCC[C@H]1C(=O)N[C@@H](CCC(N)=O)C(=O)N[C@@H](CSSC[C@H](NC(=O)[C@H](CCC(N)=O)NC(=O)[C@@H]1CCCN1C(=O)[C@@H](NC(=O)[C@H](CCCCN)NC(=O)[C@H](CCCCN)NC(=O)[C@H](CO)NC(=O)[C@H](Cc1ccc(O)cc1)NC(=O)[C@H](CCCNC(=N)N)NC(=O)[C@@H](NC(=O)[C@@H](N)[C@@H](C)CC)C(C)C)C(C)C)C(=O)O)C(=O)O)C(C)C)C(C)C [408I-418 SC x2, (IVRYSKKVPQC)2] (I: H-IVRYSKKVPQC-OH / II: H-IVRYSKKVPQC-OH; disulfide I:11-II:11; N-terminus and C-terminus assumed) | 390 nM
CC[C@H](C)[C@H](N)C(=O)N[C@H](C(=O)N[C@@H](CCCNC(=N)N)C(=O)N[C@@H](Cc1ccc(O)cc1)C(=O)N[C@H](C(=O)N[C@@H](CCCCN)C(=O)N[C@@H](CSSC[C@H](NC(=O)[C@H](CCCCN)NC(=O)[C@@H](NC(=O)[C@H](Cc1ccc(O)cc1)NC(=O)[C@H](CCCNC(=N)N)NC(=O)[C@@H](NC(=O)[C@@H](N)[C@@H](C)CC)C(C)C)[C@@H](C)O)C(=O)N[C@H](C(=O)N1CCC[C@H]1C(=O)N[C@@H](CCC(N)=O)C(=O)N[C@H](C(=O)N[C@@H](CO)C(=O)O)C(C)C)C(C)C)C(=O)N[C@H](C(=O)N1CCC[C@H]1C(=O)N[C@@H](CCC(N)=O)C(=O)N[C@H](C(=O)N[C@@H](CO)C(=O)O)C(C)C)C(C)C)[C@@H](C)O)C(C)C [408I-419 K414C x2, (IVRYTKCVPQVS)2] (I: H-IVRYTKCVPQVS-OH / II: H-IVRYTKCVPQVS-OH; disulfide I:7-II:7; N-terminus and C-terminus assumed) | 1050 nM
CC[C@H](C)[C@H](N)C(=O)N[C@H](C(=O)N[C@@H](CCCNC(=N)N)C(=O)N[C@@H](Cc1ccc(O)cc1)C(=O)N[C@H](C(=O)N[C@@H](CCCCN)C(=O)N[C@@H](CCCCN)C(=O)N[C@H](C(=O)N1CCC[C@H]1C(=O)N[C@@H](CCC(N)=O)C(=O)N[C@@H](CSSC[C@H](NC(=O)[C@H](CCC(N)=O)NC(=O)[C@@H]1CCCN1C(=O)[C@@H](NC(=O)[C@H](CCCCN)NC(=O)[C@H](CCCCN)NC(=O)[C@@H](NC(=O)[C@H](Cc1ccc(O)cc1)NC(=O)[C@H](CCCNC(=N)N)NC(=O)[C@@H](NC(=O)[C@@H](N)[C@@H](C)CC)C(C)C)[C@@H](C)O)C(C)C)C(=O)N[C@@H](CO)C(=O)O)C(=O)N[C@@H](CO)C(=O)O)C(C)C)[C@@H](C)O)C(C)C [408I-419 V418C x2, (IVRYTKKVPQCS)2] (I: H-IVRYTKKVPQCS-OH / II: H-IVRYTKKVPQCS-OH; disulfide I:11-II:11; N-terminus and C-terminus assumed) | 460 nM
CC[C@H](C)[C@H](N)C(=O)N[C@H](C(=O)N[C@@H](CCCNC(=N)N)C(=O)N[C@@H](Cc1c[nH]c2ccccc12)C(=O)N[C@H](C(=O)N[C@@H](CCCCN)C(=O)N[C@@H](CCCCN)C(=O)N[C@H](C(=O)N1CCC[C@H]1C(=O)N[C@@H](CCC(N)=O)C(=O)N[C@H](C(=O)N[C@@H](CSSC[C@H](NC(=O)[C@@H](NC(=O)[C@H](CCC(N)=O)NC(=O)[C@@H]1CCCN1C(=O)[C@@H](NC(=O)[C@H](CCCCN)NC(=O)[C@H](CCCCN)NC(=O)[C@@H](NC(=O)[C@H](Cc1c[nH]c2ccccc12)NC(=O)[C@H](CCCNC(=N)N)NC(=O)[C@@H](NC(=O)[C@@H](N)[C@@H](C)CC)C(C)C)[C@@H](C)O)C(C)C)C(C)C)C(=O)O)C(=O)O)C(C)C)C(C)C)[C@@H](C)O)C(C)C [408I-419 WC01_x2, (IVRWTKKVPQVC)2] (I: H-IVRWTKKVPQVC-OH / II: H-IVRWTKKVPQVC-OH; disulfide I:12-II:12; N-terminus and C-terminus assumed) | 400 nM
CC[C@H](C)[C@H](N)C(=O)N[C@H](C(=O)N[C@@H](CCCNC(=N)N)C(=O)N[C@@H](Cc1c[nH]c2ccccc12)C(=O)N[C@H](C(=O)N[C@@H](CSSC[C@H](NC(=O)[C@@H](NC(=O)[C@H](Cc1c[nH]c2ccccc12)NC(=O)[C@H](CCCNC(=N)N)NC(=O)[C@@H](NC(=O)[C@@H](N)[C@@H](C)CC)C(C)C)[C@@H](C)O)C(=O)N[C@@H](CCCCN)C(=O)N[C@H](C(=O)N1CCC[C@H]1C(=O)N[C@@H](CCC(N)=O)C(=O)N[C@H](C(=O)N[C@@H](CO)C(=O)O)C(C)C)C(C)C)C(=O)N[C@@H](CCCCN)C(=O)N[C@H](C(=O)N1CCC[C@H]1C(=O)N[C@@H](CCC(N)=O)C(=O)N[C@H](C(=O)N[C@@H](CO)C(=O)O)C(C)C)C(C)C)[C@@H](C)O)C(C)C [408I-419 WC02 x2, (IVRWTCKVPQVS)2] (I: H-IVRWTCKVPQVS-OH / II: H-IVRWTCKVPQVS-OH; disulfide I:6-II:6; N-terminus and C-terminus assumed) | 320 nM
CC[C@H](C)[C@H](N)C(=O)N[C@H](C(=O)N[C@@H](CCCNC(=N)N)C(=O)N[C@@H](Cc1c[nH]c2ccccc12)C(=O)N[C@@H](CSSC[C@H](NC(=O)[C@H](Cc1c[nH]c2ccccc12)NC(=O)[C@H](CCCNC(=N)N)NC(=O)[C@@H](NC(=O)[C@@H](N)[C@@H](C)CC)C(C)C)C(=O)N[C@@H](CCCCN)C(=O)N[C@@H](CCCCN)C(=O)N[C@H](C(=O)N1CCC[C@H]1C(=O)N[C@@H](CCC(N)=O)C(=O)N[C@H](C(=O)N[C@@H](CO)C(=O)O)C(C)C)C(C)C)C(=O)N[C@@H](CCCCN)C(=O)N[C@@H](CCCCN)C(=O)N[C@H](C(=O)N1CCC[C@H]1C(=O)N[C@@H](CCC(N)=O)C(=O)N[C@H](C(=O)N[C@@H](CO)C(=O)O)C(C)C)C(C)C)C(C)C [408I-419 WC03 x2, (IVRWCKKVPQVS)2] (I: H-IVRWCKKVPQVS-OH / II: H-IVRWCKKVPQVS-OH; disulfide I:5-II:5; N-terminus and C-terminus assumed) | 600 nM
CC[C@H](C)[C@H](N)C(=O)N[C@H](C(=O)N[C@@H](CCCNC(=N)N)C(=O)N[C@@H](Cc1c[nH]c2ccccc12)C(=O)N[C@@H](CO)C(=O)N[C@@H](CCCCN)C(=O)N[C@@H](CCCCN)C(=O)N[C@H](C(=O)N1CCC[C@H]1C(=O)N[C@@H](CCC(N)=O)C(=O)N[C@@H](CSSC[C@H](NC(=O)[C@H](CCC(N)=O)NC(=O)[C@@H]1CCCN1C(=O)[C@@H](NC(=O)[C@H](CCCCN)NC(=O)[C@H](CCCCN)NC(=O)[C@H](CO)NC(=O)[C@H](Cc1c[nH]c2ccccc12)NC(=O)[C@H](CCCNC(=N)N)NC(=O)[C@@H](NC(=O)[C@@H](N)[C@@H](C)CC)C(C)C)C(C)C)C(=O)N[C@@H](CO)C(=O)O)C(=O)N[C@@H](CO)C(=O)O)C(C)C)C(C)C [408I-419 WSC01 x2, (IVRWSKKVPQCS)2] (I: H-IVRWSKKVPQCS-OH / II: H-IVRWSKKVPQCS-OH; disulfide I:11-II:11; N-terminus and C-terminus assumed) | 180 nM
CC[C@H](C)[C@H](N)C(=O)N[C@H](C(=O)N[C@@H](CCCNC(=N)N)C(=O)N[C@@H](Cc1c[nH]c2ccccc12)C(=O)N[C@@H](CO)C(=O)N[C@@H](CCCCN)C(=O)N[C@@H](CCCCN)C(=O)N[C@H](C(=O)N1CCC[C@H]1C(=O)N[C@@H](CSSC[C@H](NC(=O)[C@@H]1CCCN1C(=O)[C@@H](NC(=O)[C@H](CCCCN)NC(=O)[C@H](CCCCN)NC(=O)[C@H](CO)NC(=O)[C@H](Cc1c[nH]c2ccccc12)NC(=O)[C@H](CCCNC(=N)N)NC(=O)[C@@H](NC(=O)[C@@H](N)[C@@H](C)CC)C(C)C)C(C)C)C(=O)N[C@H](C(=O)N[C@@H](CO)C(=O)O)C(C)C)C(=O)N[C@H](C(=O)N[C@@H](CO)C(=O)O)C(C)C)C(C)C)C(C)C [408I-419 WSC02 x2, (IVRWSKKVPCVS)2] (I: H-IVRWSKKVPCVS-OH / II: H-IVRWSKKVPCVS-OH; disulfide I:10-II:10) | 120 nM
IVHYTKKVPQVS [408I-419 R410H, IVHYTKKVPQVS] | > 100000 nM
IVKYTKKVPQVS [408I-419 R410K, IVKYTKKVPQVS] | > 100000 nM
IVRFTKKVPQVS [408I-419 Y411F, IVRFTKKVPQVS] | 3890 nM
IVRSTKKVPQVS [408I-419 Y411S, IVRSTKKVPQVS] | > 100000 nM
IVRWCKKVPQVS [408I-419 WC03, IVRWCKKVPQVS] | 1820 nM
IVRWSKKVCQVS [408I-419 WSC03, IVRWSKKVCQVS] | 1510 nM
IVRWSKKVPCVS [408I-419 WSC02, IVRWSKKVPCVS] | 310 nM
IVRWSKKVPQCS [408I-419 WSC01, IVRWSKKVPQCS] | 870 nM
IVRWTCKVPQVS [408I-419 WCO2, IVRWTCKVPQVS] | 2100 nM
IVRWTKKVPQVC [408I-419 WC01, IVRWTKKVPQVC] | 1650 nM
IVRWTKKVPQVS [408I-419 Y411W, IVRWTKKVPQVS] | 1540 nM
IVRYSKKVPQC [408I-418 SC, IVRYSKKVPQC] | 2940 nM
IVRYSKKVPQVS [408I-419 T412S, IVRYSKKVPQVS] | 2090 nM
IVRYTKCVPQVS [408I-419 K414C, IVRYTKCVPQVS] | 5870 nM
IVRYTKKVPQCS [408I-419 V418C, IVRYTKKVPQCS] | 3690 nM
IVRYTKKVPQVS [Derivative 408I-419, IVRYTKKVPQVS] | 2480 nM
LARYTKKV [408-415-V409A, LARYTKKV] | 32900 nM
LLVRYTKKVPQVS [Derivative 407-419, LLVRYTKKVPQVS] | 11100 nM
LVRYAKKV [408-415-T412A, LVRYAKKV] | 11200 nM
LVRYTKKV [Derivative 408-415, LVRYTKKV] | 25700 nM
LVRYTKKVPQ [Derivative 408-417, LVRYTKKVPQ] | 19800 nM
LVRYTKKVPQV [Derivative 408-418, LVRYTKKVPQV] | 26800 nM
